Reference: patent publication US7790759B2, “Glycyrrhetinic acid-30-amide derivatives and their use” (Tianjin Institute of Pharmaceutical Research, priority 2005, dated 2010)

Legend:
[1] = system: writhing response; test: Analgesic effect: acetic acid-induced writhing response; assay type: in vivo, ICR mice; conditions: 50 mg/kg intragastric; for Writhing occurrence (x ± s): 0.6% acetic acid i.p. 1 h after administration, counted during 15 minutes, n = 10
Experimental: Male or female healthy ICR mice, each weighing 18-22 g, were used. Each mouse was injected intraperitoneally with 0.6% acetic acid in a dose of 0.2 ml one day before the test. The mice with the writhing response occurring in the range of 10-50 times were selected. The selected mice were grouped randomly into model, positive control and test groups based on the occurrence of the writhing response, with 10 animals for each group. The positive group was treated with aspirin in a dose of 50 mg/kg of body weight.
After fasting for at least 12 h, the animals were intragastrically administrated: the animals in model group are administered only with 1% CMCNa in the same amount. 1 h after administration, the mice were intraperitoneally injected with 0.6% acetic acid in a dose of 0.2 ml per animal. After 5 min, the occurrence of the writhing responses for one mouse was recorded during a period of 15 minutes. Based on the occurrence recorded, the inhibition rate of the active ingredient for writhing response was calculated. Inhibition rate=(means of the writhing occurrence for model group−means of the writhing occurrence for test group)/means of writhing occurrence for model group×100%. (3) Cough-prevention

[2] = system: cough; test: Cough-prevention: ammonia-induced cough; assay type: in vivo, ICR mice; conditions: for Cough occurrence (x ± sd) / Inhibition rate of cough (%): 50 mg/kg intragastric; for Cough occurrence (x ± sd): ammonia 1 h after administration, observed within 5 min, n = 10; for Inhibition rate of cough (%): versus model group
Experimental: Male or female healthy ICR mice, each weighing 18-22 g, were used. They were grouped randomly into model, positive control and test groups based on body weight, with 10 animals for each group. The positive group was treated by codeine phosphate in a dose of 50 mg/kg of body weight.
After fasting for at least 12 h, the animals were intragastrically administrated: the animals in model group are administered only with 1% CMCNa in the same amount. To start the test, 1 h after administration, the mice were placed in a 500 ml container, into which a cotton ball sucking 0.3 ml of ammonia was added to cause coughing. The occurrence of cough was observed within 5 min. Inhibition rate of cough=(the cough occurrence for model group−the cough occurrence for test group)/the cough occurrence for model group×100%. (4) Aldosterone-like Side Effects

[3] = Subacute toxicity within one month (death); assay type: in vivo; conditions: 300 mg/kg of body weight for one week
Experimental: (§1) Three compounds of formula I of the invention were selected to examine their subacute toxicity within one month, with dexamethasone and glycyrrhetinic acid as control. […] Furthermore, the level of aldosterone in blood plasma was determined. The level will decrease in a negative feedback way when an agent having aldosterone-like effects is administrated.

[4] = system: aldosterone; assay type: in vivo; conditions: subacute toxicity study
Experimental: as §1

[5] = system: swollen ear model; test: Anti-inflammatory effect: xylene-induced swollen ear model; assay type: in vivo, ICR mice; conditions: 40 mg/kg, intragastric, xylene on right ear 30 min after administration; weight ratio swollen ear to normal ear; n 8-10
Experimental: Male or female healthy ICR mice, each weighing 18-20 g, were grouped randomly into model, positive control and test groups based on body weight, with 8-10 animals for each group. The positive group was treated by hydrocortisone in a dose of 40 mg/kg of body weight.
The compound of formula I to be tested was administered intragastrically at a concentration of 2 mg/ml in a 1% CMCNa solution, while a 1% CMCNa solution alone was administered to the model group in the same amount. 30 min after administration, 50 μl of xylene solution was added dropwise into the right ear of each mouse to cause an inflammation reaction. 30 min later, the mice were killed by breaking the cervical vertebrae. Both ears were excised immediately from the mices, and punched in the same position with a puncher having a diameter of 0.6 cm. The obtained ear piece was weighed. For each mouse, the weight ratio of swollen ear to normal ear was regarded as an indication for the degree of swelling. Biostatistical analysis was performed using the Student's t test.

[6] = system: paracetamol/hepatitis mice models; test: Liver protection in paracetamol/hepatitis mice models; conditions: 100 mg/kg
[7] = system: Influenza virus A; test: Influenza virus A-infected mice models; assay type: in vivo; conditions: 100 mg/kg

Row | SMILES | Writhing occurrence (x ± s) [1] | Cough occurrence (x ± sd) [2] | Inhibition rate of cough (%) [2] [%] | Inhibition rate of writhing response (%) ([1]; versus model group) | Swelling degree of the swollen ear model (%) (x ± sd) [5] | further results
1 | CC(=O)Oc1ccccc1C(=O)O [aspirin, reference compound] | 5.44 ± 5.87 | – | – | – | – | inhibition at 50 mg/kg ([1]; Mus musculus, po, versus model group, read-out: Inhibition rate of writhing response (%)): 73.2%
2 | CC1(C(=O)NCc2cc(-c3cccc(Cl)c3)no2)CCC2(C)CCC3(C)C(=CCC4C5(C)CCC(O)C(C)(C)C5CCC43C)C2C1 (stereo not shown) [DG8, N-[(3-m-chlorophenyl-isoxazol-5-yl)methyl]-11-deoxy-glycyrrhetinamide] | 15.89 ± 16.67 | 17.90 ± 8.21 | 35.61 | 21.9 | – | –
3 | C[C@@H]1C[C@H]2[C@@H]3CCC4=CC(=O)C=C[C@]4(C)[C@@]3(F)[C@@H](O)C[C@]2(C)[C@@]1(O)C(=O)CO [dexamethasone] | – | – | – | – | – | Death in subacute toxicity test [3]: All the animals died
4 | CC1(C)[C@@H](O)CC[C@]2(C)[C@H]3C(=O)C=C4[C@@H]5C[C@@](C)(C(=O)O)CC[C@]5(C)CC[C@@]4(C)[C@]3(C)CC[C@@H]12 [glycyrrhetinic acid] | – | – | – | – | – | Aldosterone level in blood plasma (ng/ml) (x ± sd) ([4]; 300 mg/kg, n = 8): 68.3 ± 12.5 ng/mL; Aldosterone-like effects (decrease of plasma aldosterone by negative feedback) [4]: confirmed the aldosterone-like effects; Death in subacute toxicity test [3]: no death was observed
5 | Cc1cc(CNC(=O)C2(C)CCC3(C)CCC4(C)C(=CCC5C6(C)CCC(O)C(C)(C)C6CCC54C)C3C2)on1 (stereo not shown) [DG7, N-[(3-methyl-isoxazol-5-yl)methyl]-11-deoxy-glycyrrhetinamide] | 15.78 ± 12.43 | 20.40 ± 14.31 | 26.62 | 22.4 | – | –
6 | COc1ccccc1-c1cc(CNC(=O)C2(C)CCC3(C)CCC4(C)C(=CCC5C6(C)CCC(O)C(C)(C)C6CCC54C)C3C2)on1 (stereo not shown) [DG6, N-[(3-o-methoxyphenyl-isoxazol-5-yl)methyl]-11-deoxy-glycyrrhetinamide] | 8.00 ± 6.48 | 22.60 ± 9.56 | 18.71 | 60.7 | 64.4 ± 29.2 | GPT [6]: decreased
7 | COc1ccc2c3c1O[C@H]1[C@@H](O)C=C[C@H]4[C@@H](C2)N(C)CC[C@@]341 [codeine phosphate, reference compound] | – | 8.40 ± 8.95 | – | – | – | inhibition at 50 mg/kg ([2]; Mus musculus, po, read-out: Inhibition rate of cough (%)): 69.8%
8 | CC1(C)[C@@H](O)CC[C@]2(C)[C@H]3CC=C4[C@@H]5C[C@@](C)(C(=O)NCc6cc(-c7ccccc7Cl)no6)CC[C@]5(C)CC[C@@]4(C)[C@]3(C)CC[C@@H]12 [DG4, N-[(3-o-chlorophenyl-isoxazol-5-yl)methyl]-11-deoxy-glycyrrhetinamide] | 6.56 ± 6.19 | 18.80 ± 7.04 | 32.37 | 67.8 | – | Death rate caused by the virus infection [7]: decreased
9 | COc1ccccc1-c1cc(CNC(=O)C2(C)CCC3(C)CCC4(C)C(=CC(=O)C5C6(C)CCC(O)C(C)(C)C6CCC54C)C3C2)on1 (stereo not shown) [Compound G6, N-[(3-o-methoxyphenyl-isoxazol-5-yl)methyl]-glycyrrhetinamide] | – | – | – | – | 53.4 ± 35.2 | –
10 | Cc1ccc(-c2cc(CNC(=O)[C@@]3(C)CC[C@]4(C)CC[C@]5(C)C(=CCC6[C@@]7(C)CC[C@H](O)C(C)(C)C7CC[C@]65C)[C@@H]4C3)on2)cc1 (stereo partly shown) [DG2, N-[(3-p-methylphenyl-isoxazol-5-yl)methyl]-11-deoxy-glycyrrhetinamide] | – | – | – | – | 80.2 ± 18.8 | –
11 | CC1(C(=O)NCc2cc(-c3ccc(F)cc3)no2)CCC2(C)CCC3(C)C(=CCC4C5(C)CCC(O)C(C)(C)C5CCC43C)C2C1 (stereo not shown) [DG3, N-[(3-p-fluorophenyl-isoxazol-5-yl)methyl]-11-deoxy-glycyrrhetinamide] | 18.33 ± 13.56 | 17.70 ± 7.10 | 36.33 | 9.8 | 56.1 ± 28.3 | –
12 | COc1ccccc1-c1cc(CNC(=O)[C@@]2(C)CC[C@]3(C)CC[C@]4(C)C(=CC(=O)[C@@H]5[C@@]6(C)CC[C@H](OC(C)=O)C(C)(C)[C@@H]6CC[C@]54C)[C@@H]3C2)on1 [RG1, N-[(3-o-methoxyphenyl-isoxazol-5-yl)methyl]-3-acetoxy-glycyrrhetinamide] | – | 17.64 ± 6.34 | 36.55 | – | – | –
13 | CC1(C(=O)NCc2cc(-c3ccc(O)cc3)no2)CCC2(C)CCC3(C)C(=CC(=O)C4C5(C)CCC(O)C(C)(C)C5CCC43C)C2C1 (stereo not shown) [Compound G1, N-[(3-p-hydroxylphenyl-isoxazol-5-yl)methyl]-glycyrrhetinamide] | 16.33 ± 10.57 | 28.20 ± 15.39 | −1.44 | 19.7 | – | –
14 | Cc1ccc(-c2cc(CNC(=O)C3(C)CCC4(C)CCC5(C)C(=CC(=O)C6C7(C)CCC(O)C(C)(C)C7CCC65C)C4C3)on2)cc1 (stereo not shown) [Compound G2, N-[(3-p-methylphenyl-isoxazol-5-yl)methyl]-glycyrrhetinamide] | – | – | – | – | 68.6 ± 29.5 | –
15 | C[C@]12CCC(=O)C=C1CC[C@@H]1[C@@H]2[C@@H](O)C[C@@]2(C)[C@H]1CC[C@]2(O)C(=O)CO [hydrocortisone, reference compound] | – | – | – | – | 55.7 ± 35.4 | –
16 | CC1(C(=O)NCc2cc(-c3ccc(F)cc3)no2)CCC2(C)CCC3(C)C(=CC(=O)C4C5(C)CCC(O)C(C)(C)C5CCC43C)C2C1 (stereo not shown) [Compound G3, N-[(3-p-fluorophenyl-isoxazol-5-yl)methyl]-glycyrrhetinamide] | – | – | – | – | 60.8 ± 27.9 | –
